The values below come from article PMC10862539, “Chelation of Mitochondrial Iron as an Antiparasitic Strategy” (ACS Infectious Diseases, 2024).

The test system of test [1] is T. brucei 427 bloodstream form. Kind of test: Reactive oxygen species determination (H2DCFDA, flow cytometry). Type of test: cell-based, Trypanosoma brucei. As to conditions: twice the EC50 value (0.12 μM), 24 h. How it is done: T. brucei 427 bloodstream form’s cellular ROS production was assessed using H2DCFDA (Sigma-Aldrich). Cells were preincubated for 24 h with 0.12 μM mitoDFO, and approximately 1 × 10^6 cells were incubated with 10 μM H2DCFDA for 30 min and washed with PBS with 6 mM glucose, and 10 000 events were measured on a Guava EasyCyte 8HT flow cytometer (Luminex) using a 488 excitation laser and a 525/30 detector. Median fluorescence was plotted against untreated culture using Prism 8.0 (GraphPad Software), and statistical significance was determined using a two-tailed paired t-test. The experiment was performed in three biologically independent replicates.
(Flow cytometry measures light scatter and fluorescence of single cells or particles in a stream.)

The next test has as its system Candida albicans. Nature of the test: C. albicans hyphae formation (phase contrast microscopy). Type of test: cell-based. The note with it: 3.6 and 7.2 μM mitoDFO for 24 h. How it is done: The yeast form of C. albicans was seeded in the 2 mL RPMI medium on a 24 well plate with a glass bottom and treated with MitoDFO in concentrations of 0, 3.6, and 7.2 μM. The culture was incubated at 35 °C for 24 h, and microscopic images were taken using phase contrast on an inverted microscope Eclipse TI-S (Nikon).

In test [2] the target is isolated mitochondria of T. brucei 427. Kind of test: Mitochondrial membrane intactness in isolated mitochondria (threonine dehydrogenase marker). Also noted: species or system Trypanosoma brucei. The note with it: threonine dehydrogenase activity as marker, read-out: 50% membrane intactness (inner membrane permeability increased by 50%). The method, then: Mitochondrial intactness was assessed by isolating the mitochondrial fraction of untreated cells, as described above, without the addition of Triton X-100 and adding different concentrations of mitoDFO. Threonine dehydrogenase activity was measured as a marker of the disintegration of mitochondrial membranes. Triton X-100 was used to disrupt membrane integrity and served as a positive control to obtain maximum activity. All experiments were performed in at least three biologically independent replicates and plotted and analyzed using Prism 8.0 (GraphPad Software).

The subject of test [3] is T. brucei 427 bloodstream form. Kind of test: Mitochondrial membrane potential (TMRE, flow cytometry). The note with it: 0.12, 0.3, and mitoDFO for 24 h. Also noted: dose or concentration left out as unconfirmed. Type of test: cell-based, Trypanosoma brucei. The method, then:
T. brucei 427 bloodstream form’s mitochondrial membrane potential was assessed using the fluorescent probe TMRE (Thermo Fisher Scientific). […] Approximately 1 × 10^6 cells were incubated with 60 nM TMRE for 30 min and washed with PBS with 6 mM glucose, and 10 000 events were measured on a Guava EasyCyte 8HT flow cytometer (Luminex) using a 488 excitation laser and a 583/26 detector. Median fluorescence was plotted against untreated culture using Prism 8.0 (GraphPad Software), and statistical significance was determined using RM one-way ANOVA with Geisser-Greenhouse correction. The experiment was performed in three biologically independent replicates.

A further test concerns Babesia gibsoni. Also noted: method as in PMID 18771856. As to conditions: B. gibsoni; ref [40]; cited from earlier work.

“And” between values parts separate entries of the source, which are not always exact repeats. Equal entries are not always repeated.

With `CC(=O)N(O)CCCCCNC(=O)CCC(=O)N(O)CCCCCNC(=O)CCC(=O)N(O)CCCCCN(CCCCCCCCCC[P+](c1ccccc1)(c1ccccc1)c1ccccc1)CCCCCCCCCC[P+](c1ccccc1)(c1ccccc1)c1ccccc1` [mitoDFO], the “increase in the presence of ROS compared to the culture without treatment” value in test [1] was “approximately 3.5 fold”. For the same molecule, the “hyphal growth of Candida albicans culture” value in the test with Candida albicans was “absence of hyphal growth”. In addition, the EC50 in test [2] was 63.2 µM and 63 µM. Also, the mitochondrial membrane potential entry in test [3] is reported as “rapidly reduced in a dose-dependent manner”.
As to `CC(=O)N(O)CCCCCNC(=O)CCC(=O)N(O)CCCCCNC(=O)CCC(=O)N(O)CCCCCN` [DFO, Deferoxamine, reference compound], in the test on Babesia gibsoni, the EC50 is 6.45 ± 3.43 µM.
